Assay results reported in patent US20060094737A1, “Novel uracil derivatives and medicinal use thereof” (Sumitomo Pharmaceuticals CO. Ltd., priority 2002, published 2006).

Legend:
[1] = test system: itch-related behavior induced by substance P; test: Inhibitory effect on the itch-related behavior of mice induced by substance P; type: in vivo, BALB/c strain male mice; details: frequency counted for 60 minutes, vs 0.5% CMC-Na group
Protocol: It has been reported that in the lesion part of a patient with atopic dermatitis, there are observed an increase in nerve fiber containing substance P (SP), a nerve peptide (Tobin D et al., J Allergy Clin immunol, 90, 613-22(1992)) and an increase in reactivity with SP (Gianetti A et al. Br J Dermatol, 121, 681-8(1989)). On the other hand, it has been reported that when SP is administered to the cervicodorsal part of a mouse, itch-related behavior is induced (Kuraishi Y et al. Eur J Pharmacol, 275, 229-33(1995)) and is suppressed by a certain antiallergic agent (Inagaki N et al. Eur J Pharmacol, 400, 73-9(2000)). Therefore, in order to verify the itch-inhibiting effect of the uracil derivatives of the present invention, the itch-inhibiting effect was evaluated by employing the effect of the uracil derivatives on itch-related behavior induced by SP, as an indication. Each of BALB/c strain male mice was previously transferred to a cage for observation and allowed to acclimate to an observation environment, and then SP was subcutaneously administered (200 μg/mouse) to the cervicodorsal part of the mouse. After the administration, the mouse was returned to the cage for observation and the frequency of its itch-related behavior was measured for 60 minutes after the return. Each test drug was suspended in a 0.5% CMC-Na solution and orally administered in a dose of 10 mg/kg 30 minutes before the administration of SP. For evaluating the itch-inhibiting effect, the inhibition rate of the test drug was calculated as an indication as follows by comparison with a group treated with a 0.5% CMC-Na solution. As a comparative example, an antiallergic agent Oxatomide, which is considered as an agent having itch-inhibiting effect, was administered in a dose of 3 times that of the test drug (30 mg/kg). [formula]

[2] = test system: dermatitis induced by picryl chloride (type IV allergic inflammation); test: Inhibitory effect on dermatitis induced by picryl chloride, test compound applied on the ear; type: in vivo, ICR strain male mice; details: 0.04 ml of 0.25% (w/v) test compound/acetone on the ear; ear thickness 24 hours after the causing; relative to 2.5% (w/v) comparative compound 1 (10 times the amount)
Protocol: In order to verify the inflammation-inhibiting effect of the uracil derivative of the present invention, its effect on dermatitis induced by picryl chloride, a model of typical type IV allergic inflammation was evaluated by adopting the method of Asherson et al. (Immunology, 15, 405 (1968)). On the abdominal skin of each of ICR strain male mice was applied 0.1 ml of a 7% (w/v) picryl chloride/acetone solution to induce sensitization. On the seventh days after the sensitization, 0.02 ml of a 1% (w/v) picryl chloride/acetone solution was applied on the ear of each mouse to cause an allergic reaction. […] Twenty-four hours after the causing, the thickness of the ear was measured and the dermatitis-inhibiting effect of the test compound was evaluated by employing the difference between the thickness of the ear 24 hours after the causing and that before the causing as an indication. […]
From the difference of the ear thickness before and after the causing of the allergic reaction in the case of each group, the relative degree of efficacy of the test compound in the inhibition of ear enlargement was calculated according to the following equation by comparison with a group treated with the comparative compound in an amount of 10 times that of the test compound: [formula]

[3] = test system: dermatitis induced by picryl chloride (type IV allergic inflammation); test: Inhibitory effect on dermatitis induced by picryl chloride, oral administration; type: in vivo, ICR strain male mice; details: oral 10 mg/kg in 0.5% CMC-Na one hour before the causing; relative to comparative compound 1 oral 100 mg/kg
Protocol: The effect on the animal model in Evaluation Example 1 was verified by oral administration. ICR strain male mice were sensitized in the same manner as in Evaluation Example 1, and on the seventh days after the sensitization, 0.02 ml of a 1% (w/v) picryl chloride/acetone solution was applied on the ear of each mouse to cause an allergic reaction. Each test compound was suspended in a 0.5% CMC-Na solution and orally administered in a dose of 10 mg/kg one hour before the causing of the allergic reaction. As a comparative example, the above-mentioned comparative compound 1 disclosed in Japanese Patent No. 3093170 was orally administered in a dose of 100 mg/kg to make a comparison.

[4] = oral 10 mg/kg 30 minutes before SP (200 μg/mouse s.c.)

Row | Compound | Degree of efficacy (relative degree of efficacy in the inhibition of ear enlargement) [3] | other results
1 | Cc1c(O)c(C)c(C(=O)Nc2c(N)n(-c3cccc4ccccc34)c(=O)n(C)c2=O)c2c1CCC(C)(C)O2 [Example 2, 6-amino-5-(6-hydroxy-2,2,5,7-tetramethyl-chroman-8-carboxamide)-3-methyl-1-(1-naphthyl)uracil] | – | Inhibition rate (%) of itch-related behavior [1, 4]: 71%
2 | Cc1cc(OCC(=O)Nc2c(N)n(-c3cccc4ccccc34)c(=O)n(C)c2=O)c(C)c(C)c1O [Example 4, 6-amino-5-[(4-hydroxy-2,3,5-trimethyl)phenoxy]acetamide-3-methyl-1-(1-naphthyl)uracil] | – | Degree of efficacy (relative degree of efficacy in the inhibition of ear enlargement) [2]: 0.9
3 | Cc1cc(OCC(=O)Nc2c(N)n(-c3cccc4ccccc34)c(=O)n(C)c2=O)c(C)c(C)c1N [Example 5, 6-amino-5-[(4-amino-2,3,5-trimethyl)phenoxy]acetamide-3-methyl-1-(1-naphthyl)uracil] | – | Degree of efficacy (relative degree of efficacy in the inhibition of ear enlargement) [2]: 1.1; Inhibition rate (%) of itch-related behavior [1, 4]: 53%
4 | CCn1c(=O)c(NC(=O)c2c(C)c(O)c(C)c3c2OC(C)(C)CC3)c(N)n(-c2cccnc2OC)c1=O [Example 10, 6-amino-3-ethyl-5-(6-hydroxy-2,2,5,7-tetramethylchroman-8-carboxamide)-1-(2-methoxypyridin-3-yl)uracil] | 1.6 | –
5 | CCCCn1c(=O)c(NC(=O)c2c(C)c(O)c(C)c3c2OC(C)(C)C3)c(N)n(-c2cccc3ccccc23)c1=O [Example 14, 6-amino-3-butyl-5-(6-hydroxy-2,2,5,7-tetramethyl-3-oxaindan-4-carboxamide)-1-(1-naphthyl)uracil] | 1.0 | –
6 | CCn1c(=O)c(NC(=O)c2c(C)c(O)c(C)c3c2OC(C)(C)C3)c(N)n(-c2cccc3c2CCC3)c1=O [Example 20, 6-amino-3-ethyl-5-(6-hydroxy-2,2,5,7-tetramethyl-3-oxaindan-4-carboxamide)-1-(4-indanyl)uracil] | 1.2 | –
7 | Cc1c(O)c(C)c(C(=O)Nc2c(N)n(-c3cccc4c3CCCC4)c(=O)n(C)c2=O)c2c1CC(C)(C)O2 [Example 22, 6-amino-3-methyl-5-(6-hydroxy-2,2,5,7-tetramethyl-3-oxaindan-4-carboxamide)-1-(5,6,7,8-tetrahydro-1-naphthyl)uracil] | 1.3 | –
8 | Cc1cccc(-n2c(N)c(NC(=O)COc3cc(C)c(N)c(C)c3C)c(=O)n(C)c2=O)c1C [Example 29, 6-amino-5-[(4-amino-2,3,5-trimethyl)phenoxy]acetamide-3-methyl-1-(2,3-dimethylphenyl)uracil] | 1.4 | –
9 | CNc1c(NC(=O)COc2cc(C)c(N)c(C)c2C)c(=O)n(C)c(=O)n1-c1cccc(C)c1C [Example 30, 6-methylamino-5-[(4-amino-2,3,5-trimethyl)phenoxy]acetamide-3-methyl-1-(2,3-dimethylphenyl)uracil] | 1.6 | –
10 | O=c1[nH]c2ccccc2n1CCCN1CCN(C(c2ccccc2)c2ccccc2)CC1 [Oxatomide, reference compound] | – | Inhibition rate (%) of itch-related behavior ([1]; oral 30 mg/kg 30 minutes before SP (200 μg/mouse s.c.)): 39%
